Measured values published in patent publication US9040663B2, “Melanocortin receptor-specific peptides” (AstraZeneca AB, priority 2009, dated 2015).
Read-outs that look alike come from different tables or passages of the source.

Assays:
hMC4-R [1] = target: T1, hMC4-R (Homo sapiens (Human), UniProt P32245); experiment: Competitive inhibition binding assay using [I125]-NDP-α-MSH, hMC4-R; details: membranes of HEK-293 cells expressing recombinant hMC4-R, read-out: MC4-R Ki
hMC4-R [2] = target: T1, hMC4-R; experiment: High and low density hMC4-R functional assay (cAMP, HEK293-T-REx-MC4-R cells); type: cell-based; details: NDP-α-MSH = 100%, read-out: Intrinsic Activity (%)
[3] = Food intake and body weight change; type: in vivo, Sprague-Dawley rats; details: male rats, 1.0 mg/kg s.c., mean ± SEM
Method: 7.4 Food Intake and Body Weight Change.
Change in food intake and body weight was evaluated for selected peptides administered by subcutaneous injection route. Male Sprague-Dawley rats were obtained from Hilltop Lab Animals, Inc. (Scottdale, Pa.). Animals were individually housed in conventional polystyrene hanging cages and maintained on a controlled 12 hour on/off light cycle. Water and pelleted food (ProLab RMH 2500, W.F. Fisher & Son Inc.) was provided ad libitum. The rats were dosed subcutaneously with vehicle (3.2% mannitol/50 mM Tris buffer) or selected peptides (1.0 mg/kg). The changes in food intake for the 4 and 24 hour periods after dosing and the changes in body weight for the 24 hour period after dosing were determined. The changes in body weight and food intake for the 48 hour and 72 hour periods after dosing was also measured to determine reversal of changes in body weight and food intake effects back to baseline levels (not shown).

[4] = in vivo, sc
Method: 7.5 Induction of Penile Erection.
(§1) The ability of peptides of the present invention to induce penile erection (PE) in male rats was evaluated with selected peptides. Male Sprague-Dawley rats weighing 250-300 g were kept on a 12 hour on/off light cycle with food and water ad libitum. All behavioral studies were performed between 9 a.m. and 4 p.m.
(§2) Corresponding vehicle controls (3.2% mannitol/50 mM Tris buffer) were run in parallel.

[5] = Induction of penile erection; details: male rats, rats showing at least one erection
Method: 7.5 Induction of Penile Erection.
as §1, §2

T1 sequence (P32245 whole entry): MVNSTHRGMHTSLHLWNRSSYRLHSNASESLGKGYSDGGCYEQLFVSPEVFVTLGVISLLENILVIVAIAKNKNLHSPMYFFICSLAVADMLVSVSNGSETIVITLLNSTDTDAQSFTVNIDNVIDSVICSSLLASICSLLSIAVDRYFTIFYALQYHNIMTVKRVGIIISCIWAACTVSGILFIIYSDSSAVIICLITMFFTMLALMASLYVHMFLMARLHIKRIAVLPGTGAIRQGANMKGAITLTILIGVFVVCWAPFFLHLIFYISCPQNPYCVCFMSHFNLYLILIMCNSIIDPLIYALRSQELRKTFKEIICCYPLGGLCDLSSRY

CC(=O)N[C@@H](CCCNC(=N)N)C(=O)N[C@H]1CCC(=O)NCCC[C@@H](C(N)=O)NC(=O)[C@H](Cc2c[nH]c3ccccc23)NC(=O)[C@H](CCCNC(=N)N)NC(=O)[C@@H](Cc2ccc(C#N)cc2)NC(=O)[C@H](CCC(N)=O)NC1=O [Example 46, Ac-Arg-cyclo(Glu-Gln-D-Phe(4-CN)-Arg-Trp-Orn)-NH2]
Ki (hMC4-R [1]): 4 nM
Emax (hMC4-R [2]; 0.1 ng/mL Doxycycline (low density hMC4-R system)): 40%
Emax (hMC4-R [2]; 10 ng/mL Doxycycline (high density hMC4-R system)): 97%
BW change 0-24 h ([3]; body weight): -0.29 ± 0.55 g
FI 0-4 h ([3]; food intake): 3.71 ± 0.68 g
FI 0-24 h ([3]; food intake): 20.56 ± 1.14 g
Total number of PE/rat 0-1 h ([4]; 1 mg/kg): 4.9 ± 1.1
Total number of PE/rat 0-1 h ([4]; 3 mg/kg): 4.4 ± 1.1
% Responders ([5]; 1.0 mg/kg s.c.): 100%
% Responders ([5]; 3.0 mg/kg s.c.): 86%
